Measured values taken from patent US20240299542A1, “NATURAL KILLER CELLS ENGINEERED TO REDUCE OR ELIMINATE CBL-B AND USES THEREOF” (City of Hope, priority 2021, published 2024).

Key:
granzyme B = assay: RNA-seq of siRNA-transduced primary human NK cells; format: cell-based; conditions: without or with IL-15 (10 ng/ml) 16 h, vs Scr siRNA
Procedure: FIGS. 4A-4D depict the results of a study showing that downregulation of Cbl-b increases IFN-γ secretion in IL-15-activated primary human NK cells. (FIG. 4A) RNAseq was conducted using primary human NK cells transduced with either Cbl-b siRNA or Scr siRNA without or with incubation in IL-15 (10 ng/ml) for 16 h (4 donors for each group). […] (FIG. 4B) qRT-PCR was performed to quantify the mRNA levels of IFN-γ (n=6 donors) after IL-15 (10 ng/ml) 6 h stimulation. (FIG. 4C) The percentage of intracellular IFN-γ+ cells in un-transduced NK cells or those transduced with Cbl-b siRNA or Scr siRNA, each activated with IL-15 (10 ng/ml) for 24 h (11.5% vs 4.338%; P=0.0008; n=5 donors). (FIG. 4D) Supernatants were collected after IL-15 (10 ng/ml) for 24 h and IFN-γ concentrations measured by ELISA (18115 pg/ml vs 882.5 pg/ml; P=0.0099; n=7 donors). Scr-scrambled; *P<0.05, **P<0.01, ***P<0.001 by Student's two-tailed paired t-test or One-way ANOVA; ns, not significant. Data presented as mean±SEM.
To further explore how Cbl-b regulates the functions of primary human NK cells, we performed RNA-seq analyses using enriched primary NK cells from healthy donors transduced with Cbl-b siRNA or Scr siRNA without or with IL-15 treatment for 16 h (n=4 in each group). […]

Cbl-b = assay: siRNA knockdown efficiency by immunoblot in primary human NK cells; format: cell-based; conditions: 48 h transduction, vs Scr siRNA
Procedure: (§1) FIG. 8A Primary human NK cells were transduced with Cbl-b siRNA or a scrambled siRNA (Scr siRNA) for 48 h, directly followed by immunoblot analysis to determine the efficiency of siRNA (n=3 donors). […] FIG. 8B qRT-PCR was performed to quantify the level of perform mRNA (n=7 donors) in Cbl-b siRNA- and Scr siRNA-transduced primary human cells incubated without or with IL-15 (10 ng/ml) for 16 h. FIG. 8C The perform protein level in Cbl-b siRNA- and Scr siRNA-transduced primary human NK cells incubated 24 without or with IL-15 (10 ng/ml) for 24 h was measured by immunoblot analysis. The data are representative of four experiments and are summarized in the right panel. Scr, scrambled; *P<0.05, **P<0.01; ns, not significant. Data are presented as mean±SEM.
Transient transfection. Primary human NK cells were transfected with Accell siRNA by using the Accell delivery media from Dharmacon. Gene knockdown efficiency of siRNA was determined with immunoblotting analysis.
Immunoblotting. […] Densitometric analysis was performed to quantify intensity of gel bands with Image J (National Institutes of Health).
(§2) Both groups were next incubated without or with IL-15 and co-cultured with ^51Cr labeled MV4-11, Molm-13, or EOL-1 leukemia cell lines, followed by assessment of specific lysis measured after 4 h of co-culture.

[1] = tested on: Molm-13, MV4-11 or EOL-1 leukemia cell lines; format: cell-based, human
Procedure: FIGS. 3A-3E depict the results of a study showing that downregulation of Cbl-b enhances the cytotoxicity of primary human NK cells. (FIGS. 3A and 3B) Primary human NK cells transduced with Cbl-b siRNA or Scr siRNA for 24 h were stimulated without (FIG. 3A) or with (FIG. 3B) a low concentration of IL-15 (2 ng/ml) for 16 h, then co-cultured with ^51Cr labeled Molm-13, MV4-11 or EOL-1 leukemia cell lines for 4 h, followed by quantification of specific tumor cell lysis. Each experiment was repeated with 6 different normal donors. (FIG. 3C) qRT-PCR was performed to quantify the granzyme B (GZMB) mRNA levels (n=8 donors) in siRNA- and Scr siRNA-transduced primary human NK cells incubated without or with IL-15 (10 ng/ml) for 16 h. (FIG. 3D) The concentration of the granzyme B protein in the supernatants of Cbl-b siRNA- and Scr siRNA-transduced primary human NK cells incubated without (688.1 pg/ml vs 525.4 pg/ml; P=0.0232) or with IL-15 (10 ng/ml) for 24 h (8789 pg/ml vs 3397 pg/ml; P=0.0232) was measured by ELISA (n=8 donors). (FIG. 3E) The level of granzyme B protein in Cbl-b siRNA- and Scr siRNA-transduced primary human NK cells incubated without or with IL-15 (10 ng/ml) for 24 h was measured by immunoblot analysis. The data are representative of three experiments. Scr-scrambled; *P<0.05, **P<0.01, ***P<0.001, ****P<0.0001 by One-way or Two-way ANOVA; ns, not significant. […]

perform = assay: Perforin protein by immunoblot in siRNA-transduced NK cells; format: cell-based, human; conditions: with IL-15 (10 ng/ml) 24 h, vs Scr siRNA
Procedure: as §1
Immunoblotting. Cells were harvested and suspended in RIPA lysis buffer (Thermo Fisher Scientific) on ice for 20 minutes. Equal amount of protein was resolved by 5-15% Criterion TGX gel (Bio-Rad) and then transferred onto a Nitrocellulose (NC) or PVDF membrane (Thermo Fisher Scientific). […] Densitometric analysis was performed to quantify intensity of gel bands with Image J (National Institutes of Health).
as §2

## Cbl-b siRNA: Cbl-b-specific Accell siRNA (Dharmacon), SEQ ID NO:1, CCUUCAUGUUCAGAUGGUU (Accell modified siRNA, pattern not given here)
Granzyme B
  transcriptional level of granzyme B (RNA-seq): increased
Cbl-b
  expression of Cbl-b after siRNA transduction: significant decrease
[1]
  cytotoxicity (specific lysis) without IL-15: significant increase in cytotoxicity against three of the four AML cell lines
perform
  total protein level of perform: significantly increased
